The results in this text go back to patent US9839642B2, “Beta-tetrazolyl-propionic acids as metallo-beta-lactamase inhibitors” (priority 2014, dated 2017).

One assay concerns the target IMP-1 (Serratia marcescens, UniProt P52699). Description: Enzyme activity: determination of IC50, fluorescence assay with CCF2-FA substrate. The class given is biochemical. The note with it: enzyme 2 pM, CCF2-FA 1.25 μM, 2 hours at 25° C.; read-out: IMP1 IC50. An outline of the steps:
(§1)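 Enzyme (1 pM NDM-1, 2 pM IMP-1, 30 pM VIM-1) incubated with inhibitor (20 to 0.00063 μM) and 1.25 μM CCF2-FA in 100 mM KH2PO4 pH 7, 0.005% Tween-20, 10 μM ZnSO4, 2 h at 25 °C. Fluorescence read at 460 nm (ex 405 nm); IC50 by 4-parameter fit.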

Another assay addresses VIM-1 (Pseudomonas aeruginosa, UniProt A0A0F7KYQ8). The description is as above. The following applies: enzyme 30 pM, CCF2-FA 1.25 μM, 2 hours at 25° C.; read-out: VIM1 IC50. The class given is biochemical. An outline of the steps:
as §1

For a further assay, the target named is NDM-1 (Klebsiella pneumoniae, UniProt C7C422). The description is as above. The class given is biochemical. The note with it: enzyme 1 pM, CCF2-FA 1.25 μM, 2 hours at 25° C.; read-out: NDM1 IC50. In short, it runs like this:
as §1

For assay [1], the system named is Serratia marcescens expressing IMP-1 (CL5741). Description: Antibiotic potentiation activity: synergistic concentration (MITC95) with imipenem, growth by OD600. The class given is cell-based. The note with it: 95% inhibition of bacterial growth, strain CL5741. In short, it runs like this: (§2)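 Strains grown overnight at 35° C, resuspended in saline, diluted 1:100 into 1.1×CAMHB; imipenem at 1 μg/ml or 4 μg/ml with test compound 200 μM to 0.195 μM. Incubated 22 hours to 24 hours at 35° C, OD600 read; MITC95 is lowest compound concentration inhibiting 95% of growth.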

Assay [2] concerns Klebsiella pneumoniae expressing VIM-1 (IHMA599644). Described as above. The class given is cell-based. The following applies: 95% inhibition of bacterial growth, strain IHMA599644. An outline of the steps: as §2
In assay [3] the test system is Escherichia coli expressing NDM-1 (CLB30005). Described as above. It counts as cell-based. The note with it: 95% inhibition of bacterial growth, strain CLB30005. An outline of the steps: as §2

Chain of NDM-1 (C7C422 29-270, looked up, species assumed): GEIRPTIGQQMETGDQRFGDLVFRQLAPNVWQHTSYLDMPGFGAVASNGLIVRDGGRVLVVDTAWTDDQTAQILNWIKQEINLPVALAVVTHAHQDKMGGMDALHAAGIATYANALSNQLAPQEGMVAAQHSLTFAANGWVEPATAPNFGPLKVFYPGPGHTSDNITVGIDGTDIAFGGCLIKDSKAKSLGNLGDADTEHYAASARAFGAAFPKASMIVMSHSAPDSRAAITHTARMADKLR
Chain of IMP-1 (P52699 19-246, looked up, species assumed): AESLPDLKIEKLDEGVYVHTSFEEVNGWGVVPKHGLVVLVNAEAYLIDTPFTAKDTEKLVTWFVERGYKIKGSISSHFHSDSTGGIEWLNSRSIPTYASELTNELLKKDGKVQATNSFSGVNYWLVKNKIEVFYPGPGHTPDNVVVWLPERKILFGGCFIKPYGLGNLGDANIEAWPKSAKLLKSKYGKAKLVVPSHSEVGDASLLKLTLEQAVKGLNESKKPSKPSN

Regarding `CCC[C@H](C(=O)O)[C@H](Cc1ccc(-c2cccc(CN)c2)cc1)c1nn[nH]n1` [Example 210, (2S)-2-[(1S)-2-[3′-(aminomethyl)biphenyl-4-yl]-1-(2H-tetrazol-5-yl)ethyl]pentanoic acid], the IC50 on IMP-1 turned out to be 0.13 µM; at VIM-1 it was 0.0082 µM; on NDM-1 it was 0.1 µM. The “IMP1 SM5741 MITC95” value in assay [1] was 12.5 µM. Moreover, the “VIM1 KP599644 MITC95” value in assay [2] is 18.8 µM. The “NDM1 EC30005 MITC95” value in assay [3] is 6.2 µM.
Consider `CCC[C@H](C(=O)O)[C@H](Cc1ccc(-c2ccc(CO)cc2)cc1)c1nn[nH]n1` [Example 211, (2S)-2-[(1S)-2-[4′-(hydroxymethyl)biphenyl-4-yl]-1-(2H-tetrazol-5-yl)ethyl]pentanoic acid], for which the values for the IC50 at IMP-1, at VIM-1 and on NDM-1 were 0.02 µM, 0.0034 µM and 0.012 µM, respectively. Further, the “IMP1 SM5741 MITC95” value in assay [1] was 2.3 µM. Besides, the “VIM1 KP599644 MITC95” value in assay [2] was 25 µM. Moreover, the “NDM1 EC30005 MITC95” value in assay [3] amounted to 3.1 µM.
For `CCC[C@H](C(=O)O)[C@H](Cc1ccc(-c2cn(C)c(=O)n(C)c2=O)cc1)c1nn[nH]n1` [Example 212, (2S)-2-[(1S)-2-[4-(1,3-dimethyl-2,4-dioxo-1,2,3,4-tetrahydropyrimidin-5-yl)phenyl]-1-(2H-tetrazol-5-yl)ethyl]pentanoic acid], the IC50 was found to be 0.091 µM at IMP-1, 0.015 µM at VIM-1 and 0.031 µM on NDM-1. Also, the “IMP1 SM5741 MITC95” value in assay [1] turned out to be 18.8 µM. Moreover, the “VIM1 KP599644 MITC95” value in assay [2] was 150 µM. Also, the “NDM1 EC30005 MITC95” value in assay [3] is 18.8 µM.
For the molecule `CCC[C@H](C(=O)O)[C@H](Cc1ccc(-c2ccc(C(C)(C)O)nc2)cc1)c1nn[nH]n1` [Example 213, (2S)-2-[(1S)-2-{4-[6-(1-hydroxy-1-methylethyl)pyridin-3-yl]phenyl}-1-(2H-tetrazol-5-yl)ethyl]pentanoic acid], the IC50 at IMP-1 is 0.12 µM; on VIM-1 it was 0.017 µM; at NDM-1, 0.028 µM. Also, in assay [1], the “IMP1 SM5741 MITC95” value was 18.8 µM. Moreover, in assay [2], the “VIM1 KP599644 MITC95” value was found to be 75 µM. Further, the “NDM1 EC30005 MITC95” value in assay [3] is 9.4 µM.
Consider `CCC[C@H](C(=O)O)[C@H](Cc1ccc(-c2ccccc2CN2CCOCC2)cc1)c1nn[nH]n1` [Example 214, (2S)-2-[(1S)-2-[2′-(morpholin-4-ylmethyl)biphenyl-4-yl]-1-(2H-tetrazol-5-yl)ethyl]pentanoic acid], for which the values for the IC50 on IMP-1, at VIM-1 and on NDM-1 were 0.01 µM, 0.18 µM and 0.024 µM, respectively. Moreover, in assay [1], the “IMP1 SM5741 MITC95” value was determined as 2.0 µM. For the same molecule, the “VIM1 KP599644 MITC95” value in assay [2] is above 200 µM. The “NDM1 EC30005 MITC95” value in assay [3] amounted to 7.8 µM.
On to `CCC[C@H](C(=O)O)[C@H](Cc1ccc(-c2cnn(C)c2)cc1)c1nnn[nH]1` [Example 233, (2S)-2-[(1S)-2-[4-(1-methyl-1H-pyrazol-4-yl)phenyl]-1-(1H-tetrazol-5-yl)ethyl]pentanoic acid], for which the values for the IC50 at IMP-1, at VIM-1 and at NDM-1 were 0.052 µM, 0.004 µM and 0.018 µM, respectively. Also, in assay [1], the “IMP1 SM5741 MITC95” value was 16 µM. In addition, the “VIM1 KP599644 MITC95” value in assay [2] is 75 µM. Further, the “NDM1 EC30005 MITC95” value in assay [3] was found to be 18.8 µM.
In the case of `CCC[C@H](C(=O)O)[C@H](Cc1ccc(-c2ccc3c(c2)CNC3=O)cc1)c1nnn[nH]1` [Example 234, (2S)-2-[(1S)-2-[4-(1-oxo-2,3-dihydro-1H-isoindol-5-yl)phenyl]-1-(1H-tetrazol-5-yl)ethyl]pentanoic acid], the half-inhibitory concentration (IC50) on IMP-1 stood at 0.056 µM; on VIM-1, 0.0029 µM; on NDM-1, 0.017 µM. Further, the “IMP1 SM5741 MITC95” value in assay [1] is 7.0 µM. In addition, in assay [2], the “VIM1 KP599644 MITC95” value was determined as 50 µM. Besides, the “NDM1 EC30005 MITC95” value in assay [3] came out at 25 µM.

As a reminder, the IC50 is the concentration at which inhibition is half-maximal.
